Columns and labels:
[1] = test system: fetal rat dorsal root ganglion-derived established neuronal cell line ND15; experiment: Repair effect on cisplatin-induced cell damage (cell viability), post-treatment; format: cell-based; details: ND15 cells, 24 hours cisplatin, then 2 hours post-treatment with compound 1 at 0.5, 5 or 50 μM
Protocol: A fetal rat dorsal root ganglion-derived established neuronal cell line ND15 was cultured in 10% FBS-containing DMEM. On the next day, the cells were cultured in 10% FBS-containing DMEM containing EC23 (10 μM, Reinner) for 8 days, for differentiation into neurons.
For measurement of cell viability, the medium was exchanged with DMEM/F12 medium containing alamarBlue (Invitrogen), followed by 2 hours of culture, and then the absorbance at wavelength of 570 nm and the absorbance at wavelength of 595 nm were measured. Cell viability was calculated using the ratio of the absorbance at wavelength of 570 nm to the absorbance at wavelength of 595 nm and the untreated group designated as 100%.
In a manner similar to Example 1, cell damage was induced to a fetal rat dorsal root ganglion-derived established neuronal cell line ND15 by the use of cisplatin, and then the cell viability was measured. After 24 hours of treatment with cisplatin, compound 1 was contained in a medium for 2 hours of treatment (final concentration of 0.5, 5 or 50 μM). Groups were composed of 6 groups: an untreated group; a 50 μM compound 1 treatment group; a cisplatin treatment group; a cisplatin and 0.5 μM compound 1 treatment group; a cisplatin and 5 μM compound 1 treatment group; and a cisplatin and 50 μM compound 1 treatment group.

[2] = test system: co-culture of rat dorsal root ganglion neurons and Schwann cells; experiment: Myelination in co-culture, MBP immunostaining, number of myelin sheath segments; format: cell-based; details: 30 μM with ascorbic acid treatment, vs vehicle treatment group
Protocol: The dorsal root ganglion was excised from a fetus of a female SD rat at 15 days of pregnancy, and then neurons and Schwann precursor cells thereof were separately cultured (the initial day of cell culture was designated as Day 1). On day 19 from the initial day of cell culture (Day19), Schwann precursor cells were added to the culture of neurons to initiate co-culture. Myelination was induced by treatment with ascorbic acid (a total of 4 to 5 times in accordance with 2 to 3 times of medium exchange) on the 26th to 40th days (Days 26 to 40) from the initial day of cell culture.
In combination with ascorbic acid treatment, treatment with compound 1 dissolved in sterile distilled water (final concentration of 30 μM) was performed 4 to 5 times in total. As a control, treatment with sterile distilled water instead of the compound 1 solution was performed. Groups were composed of 2 groups: a sterile distilled water treatment group (Vehicle treatment group); and a 30 μM compound 1 treatment group (compound 1 treatment group). […]
Fluorescent images of MBP were taken with a fluorescence microscope (DMI4000B, Leica), and then the number of myelin sheath segments (≥25 μm) was analyzed based on the images. […]

[3] = test system: rat cisplatin-induced peripheral neuropathy model; experiment: Mechanical allodynia (von Frey test) in rat cisplatin-induced peripheral neuropathy model; format: in vivo; details: 10 mg/kg oral single dose, day 34, 2 hours after administration, vs vehicle group
Protocol: Cisplatin (Wako Pure Chemical Industries, Ltd.) was intraperitoneally administered to SD rats (6 weeks old, male; CHARLES RIVER LABORATORIES JAPAN, INC.) intermittently twice a week (1 or 2 mg/kg) for 5 weeks, thereby preparing a cisplatin-induced peripheral neuropathy model. Cisplatin was dissolved in physiological saline to a concentration of 10 mg/mL and then administered. As a control (pseudo-induction), physiological saline was administered. The initial day of administration was designated as day 1 after induction of pathological conditions.
On day 34 after induction of pathological conditions, a solution containing compound 1 (10 mg/kg) or a solvent thereof (water for injection) was orally administered to rats. Groups were composed of 3 groups: a pseudo-induction and solvent administration group (sham group); a pathological condition-induced and solvent administration group (vehicle group); and a pathological condition-induced and compound 1 (10 mg/kg) administration group (compound 1 (10 mg/kg) group).
Beneficial effects on mechanical allodynia were evaluated in a manner similar to Example 5 and this evaluation was performed before and 2 hours after administration of compound 1 on day 34 after induction of pathological conditions.

[4] = test system: rat experimental autoimmune neuritis (EAN) model; experiment: Rat experimental autoimmune neuritis (EAN) model: clinical scores, body weight, histopathology; format: in vivo
Protocol: A method of preparing EAN model rats is as described below. Peripheral myelin protein P2 peptide 57-81 (synthesized at Toray Research Center, Inc.) was dissolved in physiological saline (Otsuka Pharmaceutical Factory, Inc.) to prepare a 2 mg/mL solution. The solution and 2 mg/mL complete Freund's adjuvant (Difco Laboratories) containing killed Mycobacterium tuberculosis H37Ra were mixed in equal amounts, thereby preparing an emulsion which was a peptide solution for administration. The peptide solution for administration (200 μL) was administered subcutaneously to the base of the tail of each Lewis rat (6 to 7 weeks old, male; CHARLES RIVER LABORATORIES JAPAN, INC.) under anesthesia, thereby preparing the EAN model. The day of administration of the peptide was designated as day 0 after induction of pathological conditions.
Clinical scores were evaluated as follows: 0=no symptom, 1=limp tail or hind limb weakness, 2=limp tail and hind limb weakness, 3=partial hind limb paralysis, 4=complete hind limb paralysis, 5=moribund state or death. Weighing was also performed.
Compound 1 (20 mg/kg) was dissolved in distilled water (Otsuka Pharmaceutical Factory, Inc.) and then the solution was orally administered to the EAN model twice a day (administration was started on day 10 after induction of pathological conditions). As a control, distilled water was orally administered to the EAN model. Groups were composed of 2 groups: a solvent administration group (vehicle group); and a compound 1 administration group.
For histopathological evaluation, on day 17 after induction of pathological conditions, the sciatic nerve and the tibial nerve were isolated, and then immersed in a 10% formalin neutral buffer solution. Specimens were sliced and then subjected to hematoxylin-eogin staining, Kliiver-Barrera staining (double staining of Luxol Fast Blue staining and Nissl staining) and immunostaining (IbaI, CD3, NFP and MBP). Specimens were observed under an optical microscope, and then the presence or the absence of T cell and macrophage infiltration, and degeneration of myelin sheaths and axons were evaluated.

[5] = 20 mg/kg oral twice a day, day 17, n = 3

## CN(C)C1CCN(C(=O)C[C@H](O)c2nccn2C)CC1 [Compound 1, (S)-1-(4-(dimethylamino)piperidin-1-yl)-3-hydroxy-3-(1-methyl-1H-imidazol-2-yl)propan-1-one]
[1]
  cell viability (decrease caused by cisplatin): suppressed decrease
[2]
  number of myelin sheath segments: Increased number of myelin sheath segments
[3]
  50% response threshold in von Frey test (mechanical allodynia): significant increase in 50% response threshold
[4]; 20 mg/kg oral twice a day from day 10 after induction
  body weight loss: no body weight loss was induced
[4]; 20 mg/kg oral twice a day from day 10 after induction, vs vehicle group
  clinical scores: Increases in clinical scores were suppressed
[4]; [5]
  number of animals with T cell infiltration, sciatic nerve: 1/3
  number of animals with T cell infiltration, tibial nerve: 0/3
  number of animals with axonal degeneration, sciatic nerve: 0/3
  number of animals with axonal degeneration, tibial nerve: 0/3
  number of animals with macrophage infiltration, sciatic nerve: 1/3
  number of animals with macrophage infiltration, tibial nerve: 0/3
  number of animals with myelin sheath degeneration, sciatic nerve: 0/3
  number of animals with myelin sheath degeneration, tibial nerve: 0/3

Source: patent publication US20250367171A1, “THERAPEUTIC OR PROPHYLACTIC AGENT FOR PERIPHERAL NEUROPATHIES” (Toray Industries, Inc., priority 2017, published 2025)
